According to ChEMBL document CHEMBL5715952 (Oncotarget, 2015):
Activity calls are given as the source filed them. No cut-off for these calls is given here.

Assays:
RPMI-8226 = test: Synergistic antiproliferative activity against wild-type human RPMI-8226 cells assessed as reduction in cell viability at ED50 incubated for 72 hrs in presence of bortezomib by MTS assay; format: functional
ANBL-6 [1] = test: Synergistic antiproliferative activity against wild-type human ANBL-6 cells assessed as reduction in cell viability at ED50 incubated for 72 hrs in presence of bortezomib by MTS assay; format: functional
ANBL-6 [2] = test: Induction of apoptosis in wild-type human ANBL-6 cells assessed as late apoptosis at 40 nM incubated for 72 hrs by annexin V and 7-AAD staining by flow cytometry analysis (Rvb=26 %); format: functional
ANBL-6 [3] = test: Induction of apoptosis in wild-type human ANBL-6 cells assessed as early apoptosis at 40 nM incubated for 72 hrs by annexin V and 7-AAD staining by flow cytometry analysis (Rvb=14 %); format: functional
ANBL-6 [4] = test: Induction of apoptosis in wild-type human ANBL-6 cells assessed as early apoptosis at 1600 nM incubated for 72 hrs by annexin V and 7-AAD staining by flow cytometry analysis (Rvb=14 %); format: functional
[5] = system: Bortezomib-resistant ANBL6; test: Induction of apoptosis in human bortezomib-resistant ANBL6 cells assessed as viable at 160 nM incubated for 72 hrs by annexin V and 7-AAD staining by flow cytometry analysis (Rvb=80 %); format: functional
[6] = system: Bortezomib-resistant ANBL6; test: Synergistic apoptosis activity in human bortezomib-resistant ANBL6 cells assessed as viable at 1600 nM incubated for 72 hrs in the presence of BTZ by annexin V and 7-AAD staining by flow cytometry analysis (Rvb=80 %); format: functional
[7] = system: Bortezomib-resistant ANBL6; test: Induction of apoptosis in human bortezomib-resistant ANBL6 cells assessed as late apoptosis at 160 nM incubated for 72 hrs by annexin V and 7-AAD staining by flow cytometry analysis (Rvb=5 %); format: functional
[8] = system: Bortezomib-resistant ANBL6; test: Induction of apoptosis in human bortezomib-resistant ANBL6 cells assessed as late apoptosis at 1600 nM incubated for 72 hrs by annexin V and 7-AAD staining by flow cytometry analysis (Rvb=5 %); format: functional
ANBL-6 [9] = test: Synergistic apoptosis activity in wild-type human ANBL-6 cells assessed as early apoptosis at 1600 nM incubated for 48 hrs in the presence of BTZ by annexin V and 7-AAD staining by flow cytometry analysis; format: functional
ANBL-6 [10] = test: Synergistic apoptosis activity in wild-type human ANBL-6 cells assessed as early apoptosis at 1600 nM incubated for 72 hrs in the presence of BTZ by annexin V and 7-AAD staining by flow cytometry analysis; format: functional
[11] = target: Bromodomain and extra-terminal motif (BET) (Homo sapiens) (UniProt P25440+O60885+Q58F21+Q15059); details: Bortezomib-resistant ANBL6 cell, dose lower 40.0 nM, dose upper […]

Structure (SMILES): Cc1sc2c(c1C)C(c1ccc(Cl)cc1)=N[C@@H](CC(N)=O)c1nnc(C)n1-2
- CI (RPMI-8226): 1.367
- CI (ANBL-6 [1]): 0.793
- Activity (ANBL-6 [2]): 28%
- Activity (ANBL-6 [3]): 12%
- Activity (ANBL-6 [4]): 31%
- Activity [5]: 78%
- Activity [6]: 23%
- Activity [7]: 4%
- Activity [8]: 16%
- CI (ANBL-6 [9]): 0.24
- CI (ANBL-6 [10]): 0.44
- inhibition [11]: Active
